The supplement of paper PMC11208160

Assay: recombinant barcode read abundance after kanamycin selection (control-corrected) (log10(CPM+1)); higher = more efficient recombination; sequences stand for … in AGTGCAGAGAAAATCGGCCAGTTTTCTCTGCCTGCAGTCCGCATGCCGT…AGATTTATGCAGCGGACTGCCTTTCTCCCAAAGTGATAAACCGGACAGTATCATGGACCGGTTTTCCCGGTAATCCGTATTTGCAAGGTTGGTTTCACT; site = the 11-nt target
Summary of the method: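 Pooled E. coli screen pairing targets with IS621 bridge RNA target-binding loops. Each oligo (promoter, target, barcode, J23119-driven first 104 bridge RNA bases) was Gibson-cloned into a vector with the remaining 73 bp and T7-inducible recombinase, then co-electroporated with a donor plasmid. Two replicates each were plated on chloramphenicol/ampicillin LB agar (control) or chloramphenicol/ampicillin/kanamycin with 0.1 mM IPTG. Recombination efficiency is recombinant-junction barcode counts as CPM, averaged, control-corrected, reported as log10(CPM+1).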
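Also: IS621 recombinase and bridge RNA in Escherichia coli cells.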

Row | Sequence | recombinant barcode read abundance (log10)
1 | CCAAGTCCTTGGGTTCTAACCTGTTGCCA (site GTTCAGACTAA) | 0.031
2 | GATTCGACTTGGGTTCTAACCTGTTGCGT (site GATTCGACTAC) | 1.02
3 | TGCCTCTCTTGGGTTCTAACCTGTTGCTA (site TGCCTCTCTTA) | 0.279
4 | CCTGGACCTTGGGTTCTAACCTGTTGCTT (site CCTGGACCTAA) | 1.87
5 | TCTATGACTTGGGTTCTAACCTGTTGCCT (site TCTATGTCTAG) | 0.187
6 | TACATCCCTTGGGTTCTAACCTGTTGCCT (site TACATCCCTAG) | 0.915
7 | GATACAGCTTGGGTTCTAACCTGTTGCCT (site GAGACAGCTAG) | 0.155
8 | CACGGTCCTTGGGTTCTAACCTGTTGCCT (site CACGGTCCTAG) | 2.13
9 | GATCGAGCTTGGGTTCTAACCTGTTGCAG (site TGGACGACTAA) | 0.178
10 | TAGTCGTCTTGGGTTCTAACCTGTTGCTA (site TAGTCGTCTTA) | 0.505
11 | TCAGCATCTTGGGTTCTAACCTGTTGCCT (site TCAGCATCTAG) | 0.457
12 | ACTCAGGCTTGGGTTCTAACCTGTTGCCG (site ACAGAGGCTCG) | 0.138
13 | ACAAAGGCTTGGGTTCTAACCTGTTGCGG (site ACAAAAGCTCC) | 1.69
14 | GACATTCCTTGGGTTCTAACCTGTTGCCT (site TACATTCCTAG) | 0.0381
15 | GAGTTTCCTTGGGTTCTAACCTGTTGCGT (site GAGTTTCCTAC) | 0.791
16 | GCTCAGGCTTGGGTTCTAACCTGTTGCCT (site GCTCAGGCTAG) | 0.216
17 | GGGCCTACTTGGGTTCTAACCTGTTGCTC (site GGGCCTACTAA) | 0.248
18 | GGAACCTCTTGGGTTCTAACCTGTTGCTT (site GGAACGTCTAA) | 0.0112
19 | TCCCGACCTTGGGTTCTAACCTGTTGCCT (site TCCCGAACTAG) | 0.135
20 | CTACAACCTTGGGTTCTAACCTGTTGCAG (site TGGACTACTGA) | 0.25
21 | TTCAAGGCTTGGGTTCTAACCTGTTGCCT (site TTCAAGTCTAG) | 0.461
22 | CGACCCTCTTGGGTTCTAACCTGTTGCTT (site ACACCCTCTAA) | 0.178

Row | Sequence | recombinant barcode read abundance (log10)
23 | TTCTCTTCTTGGGTTCTAACCTGTTGCCT (site TTCTCTTCTAG) | 0.0495
24 | CGTGGGCCTTGGGTTCTAACCTGTTGCCT (site CTTGGGCCTAG) | 0.0694
25 | GACGGATCTTGGGTTCTAACCTGTTGCGT (site GACGGATCTAA) | 0.0403
26 | GCGGGATCTTGGGTTCTAACCTGTTGCCT (site ACGGGATCTAG) | 0.765
27 | AGACGTACTTGGGTTCTAACCTGTTGCGT (site AGACGTACTAC) | 1.82
28 | GCCATAACTTGGGTTCTAACCTGTTGCCT (site GCCATAACTAG) | 0.0347
29 | TAGACTACTTGGGTTCTAACCTGTTGCCT (site TAGACTACTAG) | 0.521
30 | ATCGGAGCTTGGGTTCTAACCTGTTGCCG (site ATCGGAGCTCG) | 0.497
31 | TGTCTACCTTGGGTTCTAACCTGTTGCTA (site TGTCTCCCTAA) | 0.209
32 | TGCCAGACTTGGGTTCTAACCTGTTGCGT (site TGCCAGACTAC) | 1.74
33 | TGTGCGTCTTGGGTTCTAACCTGTTGCCT (site GGTGCGTCTAG) | 0.0172
34 | CTTACAGCTTGGGTTCTAACCTGTTGCCT (site CTTACTGCTAG) | 0.147
35 | CCTTTACCTTGGGTTCTAACCTGTTGCCT (site GCTTTACCTAG) | 0.0546
36 | TGTCGAGCTTGGGTTCTAACCTGTTGCCG (site TGTTGAGCTCG) | 0.106
37 | CGTGGGCCTTGGGTTCTAACCTGTTGCCT (site CGTGGGCCTAG) | 0.0583
38 | GAGTTTCCTTGGGTTCTAACCTGTTGCGT (site GAGTTACCTAC) | 0.142
39 | TAGACAGCTTGGGTTCTAACCTGTTGCCT (site TACACAGCTAG) | 0.122
40 | TACGAATCTTGGGTTCTAACCTGTTGCCT (site TACGAATCTCG) | 0.0232
41 | CCTGGACCTTGGGTTCTAACCTGTTGCTT (site CCTGGTCCTAT) | 0
42 | TAAGTCCCTTGGGTTCTAACCTGTTGCCT (site AAAGTCCCTAG) | 0.233
43 | GGCTTACCTTGGGTTCTAACCTGTTGCCT (site AGCTTACCTAG) | 0.0239
44 | TAGAATCCTTGGGTTCTAACCTGTTGCAC (site TAGAATCCTGT) | 0.152

Row | Sequence | recombinant barcode read abundance (log10)
45 | GTAGTTCCTTGGGTTCTAACCTGTTGCCT (site GTAGTTCCTAG) | 1.6
46 | ACGCTGGCTTGGGTTCTAACCTGTTGCCT (site ACGCTGGCTAG) | 0.381
47 | TCCAGTCCTTGGGTTCTAACCTGTTGCTG (site AGCAGTCCTCA) | 0.0888
48 | CGTTGTCCTTGGGTTCTAACCTGTTGCAA (site CCTTGTCCTCT) | 0.00991
49 | ACGTTACCTTGGGTTCTAACCTGTTGCCT (site ACGTTACCTAG) | 0.501
50 | TAGCCTACTTGGGTTCTAACCTGTTGCGA (site TAGCCTACTAC) | 0.0304
51 | GTGCCTGCTTGGGTTCTAACCTGTTGCCT (site GCGCATGCTAG) | 0.039
52 | GATACTACTTGGGTTCTAACCTGTTGCAG (site GATGCTACTCT) | 0.11
53 | AACTTGACTTGGGTTCTAACCTGTTGCCT (site AATTTGACTAG) | 0.232
54 | CGCCTCCCTTGGGTTCTAACCTGTTGCCT (site CGCCTCCCTAG) | 0.446
55 | GAGTCTCCTTGGGTTCTAACCTGTTGCGG (site CTTCGGACTAA) | 0.187
56 | AAGGCCTCTTGGGTTCTAACCTGTTGCAT (site AAGGCCTCTAT) | 2.93
57 | GCGTTGCCTTGGGTTCTAACCTGTTGCCT (site GGGTTGCCTAG) | 0.0557
58 | CTACCTACTTGGGTTCTAACCTGTTGCGG (site AATATCTCTTG) | 0.224
59 | AGAGCCTCTTGGGTTCTAACCTGTTGCTA (site AGAGCCTCTTA) | 2.36
60 | CCAGAAGCTTGGGTTCTAACCTGTTGCGT (site CCAGAAGCTAC) | 0.279
61 | CGGGGTTCTTGGGTTCTAACCTGTTGCCT (site CGGGGTTCTAG) | 2.43
62 | AGTTTCACTTGGGTTCTAACCTGTTGCCT (site AGTTCCACTAG) | 0.0621
63 | ACAAGACCTTGGGTTCTAACCTGTTGCAT (site TTCTAGTCTTA) | 0.0713
64 | TAGAACACTTGGGTTCTAACCTGTTGCTA (site TAGAACACTTA) | 0.807
65 | GAGGATCCTTGGGTTCTAACCTGTTGCCT (site GAGGATCCTAG) | 2.12
66 | AAGGTCACTTGGGTTCTAACCTGTTGCCT (site ACGGTCACTAG) | 0.816
